Test results taken from US4407805A, “Analgesic mixture of nalbuphine and zomepirac” (E. I. Du Pont de Nemours and Company, priority 1982, dated 1983).
Like-named read-outs stand apart in the source and are kept apart here.

System: phenyl-p-benzoquinone induced writhing in mice
Assay: phenyl-p-benzoquinone induced writhing test in mice (antiphenylquinone writhing), oral, with isobologram analysis
Type: in vivo, mouse (male CF1)
Conditions: 20 min; for ED50: read-out: ED50 dose; for % mice blocked: oral
Experimental: The phenyl-p-benzoquinone induced writhing test in mice [H. Blumberg et al., Proc. Soc. […] The method simply consists of reading the % ED50 DOSE for each dose ratio on the best fit regression analysis curve from the mouse isobologram, multiplying each component by its effective species dose, and then forming the ratio of the amount of nalbuphine to zomepirac. […] [E. W. Pelikan, The Pharmacologist, 1, 73 (1959).]
All solutions are prepared fresh daily.
Each mouse is used only once, then discarded.
In order to study the interaction between nalbuphine and zomepirac, 6 precise dosage ratios of nalbuphine hydrochloride and zomepirac are selected.
The nature of the analgetic interaction (addition, synergism, or antagonism) is determined by graphing the results in a Loewe isobologram [S. Loewe, Pharm. Rev. 9:237-242, (1957)]. The isobologram is a quantitative method for measuring interactions between drugs where dose-effect relationships are depicted in a multi-dimensional array with lines connecting dose pairs that are equieffective in relationship to a common pharmacological endpoint. In this instance, the antiphenylquinone writhing test is used to estimate a common level of analgesic activity (ED50 dose) for the two component drugs separately and for each fixed dose-ratio combination.
If such substitution increases the response, the mixing together of the compounds is said to potentiate their effects and synergism exists.
Consider ED50 doses of mixtures of X units of compound B with Y units of compound A, whose ED50 doses are β and α, respectively. Given the hypothesis of additivity, all doses of mixtures satisfying the straight line relation,
will be ED50 doses. To test the hypothesis of additivity, ED50 doses of mixtures are estimated through probit analysis of data from experiments run at various ratios of A to B. Linear and curvilinear regression models are fitted to the data to estimate the amounts of A in respective ED50 doses, given the amount of B, (or, conversely, the amount of B, given A).
The regression is fitted to the data by the method of least squares. Residual squared deviations about the line of best fit are minimized in directions along lines from the origin through respective data points on the isobologram, these lines making angles with X-axis, tan^-1 (Y/X). This is accomplished by a transformation prior to the […] analysis. Its inverse is applied to transform the coordinates of the regression curve back to the X,Y coordinates of the isobologram.
A statistically significant regression will refute the hypothesis.
The method of least squares utilizes jointly the information contained in all of the separate data points. Statistical significance of the curvilinearity of the regression model establishes the existence of synergism (or antagonism) of the compounds in the biological system studied. The parameters in the model describe its intensity over the range of mixture ratios, from 0 to 1, the nature of which is seen readily when the regression is plotted on the isobologram.

Question: What does the source list for `Cc1cc(CC(=O)O)n(C)c1C(=O)c1ccc(Cl)cc1` [Zomepirac Sodium, 5-(4-chlorobenzoyl)-1,4-dimethyl-1H-pyrrole-2-acetic acid]?
Answer: ED50 (drug alone, twenty minutes post oral dosing, mouse antiphenylquinone writhing test): 1.66 mg/kg; % mice blocked (nalbuphine HCl 0 + zomepirac sodium 0.29 mg/kg): 13.3%; % mice blocked (nalbuphine HCl 0 + zomepirac sodium 0.58 mg/kg): 20.0%; % mice blocked (nalbuphine HCl 0 + zomepirac sodium 1.16 mg/kg): 31.1%; % mice blocked (nalbuphine HCl 0 + zomepirac sodium 2.32 mg/kg): 75.6%

Question: Which results are given for `Oc1ccc2c3c1O[C@H]1[C@@H](O)CC[C@@]4(O)[C@@H](C2)N(CC2CCC2)CC[C@]314` [Nalbuphine, (-)-17-(cyclobutylmethyl)-4,5α-epoxymorphinan-3,6α,14-triol]?
Answer: ED50 (Mus musculus, po): 12 mg/kg; % mice blocked (nalbuphine HCl 2.75 + zomepirac sodium 0 mg/kg): 15.6%; % mice blocked (nalbuphine HCl 5.5 + zomepirac sodium 0 mg/kg): 24.4%; % mice blocked (nalbuphine HCl 11 + zomepirac sodium 0 mg/kg): 62.2%; % mice blocked (nalbuphine HCl 22 + zomepirac sodium 0 mg/kg): 68.9%; % mice blocked (nalbuphine HCl 44 + zomepirac sodium 0 mg/kg): 84.4%
